According to patent US20140011676A1, “1, 8 -DIAZASPIRO [4.5] DECANE- 2, 4 -DIONE DERIVATIVES USEFUL AS PESTICIDES” (SYNGENTA PARTICIPATIONS AG, priority 2010, published 2014):
Where two headings read alike, the source gives them in different places.

Key:
[1] = tested on: Myzus persicae (green peach aphid); details: foliar, 144 h, read-out: activity (mortality) against Myzus persicae
[2] = tested on: Tetranychus urticae (two-spotted spider mite); experiment: whole plant or invertebrate; details: foliar, 192 h, read-out: activity (egg, larval and adult mortality) against Tetranychus urticae
[3] = tested on: cabbage plants; details: in vivo, 6 days, 200 ppm
[4] = tested on: Myzus persicae (green peach aphid); experiment: Activity against Myzus persicae on cabbage plants, feeding/residual contact activity, spray chamber; format: in vivo; details: 144 h, 6 days after treatment
[5] = tested on: Thrips tabaci (onion thrips); details: foliar, 144 h, read-out: activity (mortality) against Thrips tabaci
[6] = tested on: Myzus persicae (green peach aphid); experiment: Activity against Myzus persicae, mixed population, systemic/feeding activity, curative (pea seedlings); details: 144 h, read-out: activity (mortality) against Myzus persicae, systemic

SMILES | mortality at 400 ppm [1] | mortality at 400 ppm [2] | damage to cabbage plants (phytotoxicity) [3] | mortality at 200 ppm [4] | mortality at 400 ppm [5] | mortality at 400 ppm [6] | melting point
CON1CCC2(CC1)C(=O)C(Cl)(c1cc(C)c(C)cc1Cl)C(=O)N2C (stereo not shown) [Compound P1.1, 3-Chloro-3-(2-chloro-4,5-dimethyl-phenyl)-8-methoxy-1-methyl-1,8-diaza-spiro[4.5]decane-2,4-dione] | > 80% | > 80% | – | – | – | – | –
CON1CCC2(CC1)C(=O)C(Cl)(c1cc(Br)c(C)cc1C)C(=O)N2C (stereo not shown) [Compound P1.2] | > 80% | – | ≤ 10% | ≥ 80% | > 80% | – | –
CON1CCC2(CC1)C(=O)C(Cl)(c1c(C)cc(Br)cc1C)C(=O)N2C (stereo not shown) [Compound P1.3] | > 80% | – | ≤ 10% | ≥ 80% | – | > 80% | –
CON1CCC2(CC1)C(=O)C(Cl)(c1c(C)cc(C)cc1C)C(=O)N2C (stereo not shown) [Compound P1.4] | > 80% | – | ≤ 10% | ≥ 80% | > 80% | > 80% | –
CON1CCC2(CC1)C(=O)C(Cl)(c1cc(C)ccc1C)C(=O)N2C (stereo not shown) [Compound P1.5, 3-Chloro-3-(2,5-dimethyl-phenyl)-8-methoxy-1-methyl-1,8-diaza-spiro[4.5]decane-2,4-dione] | – | – | ≤ 10% | ≥ 80% | – | – | –
CON1CCC2(CC1)C(=O)C(Cl)(c1cc(C)c(C)cc1C)C(=O)N2CC1CC1 (stereo not shown) [Compound P1.6] | – | – | ≤ 10% | ≥ 80% | – | – | –
CON1CCC2(CC1)C(=O)C(Cl)(c1c(C)cccc1C)C(=O)N2C (stereo not shown) [Compound P1.7] | – | – | ≤ 10% | ≥ 80% | – | > 80% | –
CON1CCC2(CC1)C(=O)C(Cl)(c1c(C)cc(C)cc1C)C(=O)N2CC1CCCO1 (stereo not shown) [Compound P1.8] | – | – | ≤ 10% | ≥ 80% | – | – | –
COc1cc(Cl)cc(C)c1C1(Cl)C(=O)N(C)C2(CCN(OC)CC2)C1=O (stereo not shown) [Compound P1.10] | – | – | – | – | – | – | 115 to 117 °C
CCc1cc(Cl)cc(C)c1C1(Cl)C(=O)N(C)C2(CCN(OC)CC2)C1=O (stereo not shown) [Compound P1.11] | > 80% | – | ≤ 10% | ≥ 80% | – | – | –
CON1CCC2(CC1)C(=O)C(Cl)(c1c(C)ccc(-c3ccc(Cl)cc3)c1C)C(=O)N2C (stereo not shown) [Compound P1.12] | > 80% | – | ≤ 10% | ≥ 80% | – | – | –
CON1CCC2(CC1)C(=O)C(c1c(C)cc(C)cc1C)([N+](=O)[O-])C(=O)N2C (stereo not shown) [Compound P1.13, 8-Methoxy-1-methyl-3-nitro-3-(2,4,6-trimethyl-phenyl)-1,8-diaza-spiro[4.5]decane-2,4-dione] | > 80% | – | ≤ 10% | ≥ 80% | – | – | –
COCCN1C(=O)C(Cl)(c2c(C)cc(Cl)cc2C)C(=O)C12CCN(OC)CC2 (stereo not shown) [Compound P1.14] | > 80% | – | ≤ 10% | ≥ 80% | – | – | –
